According to patent US20100160321A1, “IMIDAZOLINONE AND HYDANTOINE DERIVATIVES AS NOVEL INHIBITORS OF HISTONE DEACETYLASE” (priority 2005, published 2010):

How the values were obtained:
[1] = molecular target: histone deacetylase (HeLa nuclear extracts); assay: In vitro assay for inhibition of histone deacetylase (HDAC Fluorescent Activity Assay, Fluor de Lys); assay type: biochemical; settings: HeLa nuclear extracts 60 μg/ml, 75 μM Fluor de Lys substrate, example C.1
Excerpt: The in vitro assay for inhibition of histone deacetylase (see example C.1) measures the inhibition of HDAC enzymatic activity obtained with the compounds of formula (I).
The HDAC Fluorescent Activity Assay/Drug Discovery Kit of Biomol (cat.No: AK-500-0001) was used. The HDAC Fluorescent Activity Assay is based on the Fluor de Lys (Fluorogenic Histone deAcetylase Lysyl) substrate and developer combination. The Fluor de Lys substrate, comprises an acetylated lysine side chain. Deacetylation of the substrate sensitizes the substrate so that, in the second step, treatment with the Fluor de Lys developer produces a fluorophore.
HeLa nuclear extracts (supplier: Biomol) were incubated at 60 μg/ml with 75 μM of substrate. The Fluor de Lys substrate was added in a buffer containing 25 mM Tris, 137 mM NaCl, 2.7 mM KCl and 1 mM MgCl2.6H2O at pH 7.4. After 30 min, 1 volume of the developer was added. The fluorophore was excited with 355 nm light and the emitted light (450 nm) was be detected on a fluorometric plate reader.
For each experiment, controls (containing HeLa nuclear extract and buffer), a blank incubation (containing buffer but no HeLa nuclear extract) and samples (containing compound dissolved in DMSO and further diluted in buffer and HeLa nuclear extract) were run in parallel. In first instance, compounds were tested at a concentration of 10^−5M. […] All sample were tested 4 times. In each test the blank value was subtracted from both the control and the sample values. The control sample represented 100% of substrate deactylation. For each sample the fluorescence was expressed as a percentage of the mean value of the controls. […] Herein the effects of test compounds are expressed as pIC50 (the negative log value of the IC50-value) (see Table F-3).

[2] = tested on: human A2780 ovarian carcinoma cells; assay: Antiproliferative activity on A2780 cells (MTT); assay type: cell-based; settings: 96 h, four days of incubation, example C.2, read-out: Cellular activity pIC50 (converted)
Experimental: All compounds tested were dissolved in DMSO and further dilutions were made in culture medium. Final DMSO concentrations never exceeded 0.1% (v/v) in cell proliferation assays. Controls contained A2780 cells and DMSO without compound and blanks contained DMSO but no cells. MTT was dissolved at 5 mg/ml in PBS.
Cells were routinely kept as monolayer cultures at 37° C. in a humidified 5% CO2 atmosphere. Cells were passaged once a week using a trypsin/EDTA solution at a split ratio of 1:40. All media and supplements were obtained from Life Technologies. Cells were free of mycoplasma contamination as determined using the Gen-Probe Mycoplasma Tissue Culture kit (supplier: BioMerieux).
Cells were seeded in NUNC™ 96-well culture plates (Supplier: Life Technologies) and allowed to adhere to the plastic overnight. Densities used for plating were 1500 cells per well in a total volume of 200 μl medium. After cell adhesion to the plates, medium was changed and drugs and/or solvents were added to a final volume of 200 μl. Following four days of incubation, medium was replaced by 200 μl fresh medium and cell density and viability was assessed using an MTT-based assay. To each well, 25 μl MTT solution was added and the cells were further incubated for 2 hours at 37° C. The medium was then carefully aspirated and the blue MTT-formazan product was solubilized by addition of 25 μl glycine buffer followed by 100 μl of DMSO. […] Within an experiment, the results for each experimental condition are the mean of 3 replicate wells. […] For each experiment, controls (containing no drug) and a blank incubation (containing no cells or drugs) were run in parallel. The blank value was subtracted from all control and sample values. For each sample, the mean value for cell growth (in absorbance units) was expressed as a percentage of the mean value for cell growth of the control. […] Herein the effects of test compounds are expressed as pIC50 (the negative log value of the IC50-value)(see Table F-3).

Structure (SMILES): O=C(NO)c1cnc(N2CCC(CN3CCN(c4cccc5ccccc45)C3=O)CC2)nc1 [Compound 1]
- Enzyme activity pIC50 [1]: 7.1
- IC50 [2]: 1 µM

Structure (SMILES): O=C(NO)c1cnc(N2CCC(Cn3ccn(-c4ccc(Oc5ccccc5)cc4)c3=O)CC2)nc1 [Compound 2]
- Enzyme activity pIC50 [1]: 7.5
- IC50 [2]: 0.126 µM

Structure (SMILES): O=C(NO)c1cnc(N2CCC(Cn3ccn(-c4ccc(-c5ccccc5)cc4)c3=O)CC2)nc1 [Compound 3]
- Enzyme activity pIC50 [1]: 7.8
- IC50 [2]: 0.0794 µM

Structure (SMILES): O=C(NO)c1cnc(N2CCC(Cn3ccn(-c4ccc(F)cc4)c3=O)CC2)nc1 [Compound 4]
- Enzyme activity pIC50 [1]: 7.6
- IC50 [2]: 0.631 µM

Structure (SMILES): N#Cc1ccc(N2C(=O)C(c3ccccc3)N(CC3CCN(c4ncc(C(=O)NO)cn4)CC3)C2=O)cc1 (centres unmarked) [Compound 5]
- Enzyme activity pIC50 [1]: 7.1
- IC50 [2]: 0.631 µM
- melting point: 187 °C

Structure (SMILES): CC1C(=O)N(c2ccc(-c3ccccc3)cc2)C(=O)N1CC1CCN(c2ncc(C(=O)NO)cn2)CC1 (centres unmarked) [Compound 6]
- Enzyme activity pIC50 [1]: 7.2
- IC50 [2]: 0.501 µM
- melting point: 169 °C

Structure (SMILES): O=C(NO)c1cnc(N2CCC(CN3CCN(c4ccc(Oc5ccccc5)cc4)C3=O)CC2)nc1 [Compound 10]
- Enzyme activity pIC50 [1]: 7.2
- IC50 [2]: 2.51 µM

Structure (SMILES): O=C(NO)c1cnc(N2CCC(CN3CCN(c4ccc(-c5ccccc5)cc4)C3=O)CC2)cn1 [Compound 11]
- Enzyme activity pIC50 [1]: 7.3
- IC50 [2]: 0.631 µM

Structure (SMILES): O=C(NO)c1cnc(N2CCOC(Cn3ccn(-c4ccccc4)c3=O)C2)nc1 (centres unmarked) [Compound 12]
- Enzyme activity pIC50 [1]: 7.5
- IC50 [2]: 0.631 µM

Structure (SMILES): COc1ccc(-n2ccn(CC3CN(c4ncc(C(=O)NO)cn4)CCO3)c2=O)cc1OC (centres unmarked) [Compound 13]
- Enzyme activity pIC50 [1]: 7.3
- IC50 [2]: 0.794 µM

Structure (SMILES): Cc1cccc(-n2ccn(CC3CN(c4ncc(C(=O)NO)cn4)CCO3)c2=O)c1 (centres unmarked) [Compound 14]
- Enzyme activity pIC50 [1]: 6.8
- IC50 [2]: 6.31 µM

Structure (SMILES): O=C(NO)c1cnc(N2CCOC(Cn3ccn(-c4cccc(C(F)(F)F)c4)c3=O)C2)nc1 (centres unmarked) [Compound 15]
- Enzyme activity pIC50 [1]: 7.3
- IC50 [2]: 1.26 µM

Structure (SMILES): COc1cc(-n2ccn(CC3CN(c4ncc(C(=O)NO)cn4)CCO3)c2=O)cc(OC)c1OC (centres unmarked) [Compound 16]
- Enzyme activity pIC50 [1]: 7.2
- IC50 [2]: 1.26 µM

Structure (SMILES): COc1ccc(-n2ccn(CC3CN(c4ncc(C(=O)NO)cn4)CCO3)c2=O)cc1 (centres unmarked) [Compound 18]
- Enzyme activity pIC50 [1]: 7.2
- IC50 [2]: 1.26 µM

Structure (SMILES): O=C(NO)c1cnc(N2CCOC(Cn3ccn(-c4ccc(F)cc4)c3=O)C2)nc1 (centres unmarked) [Compound 20]
- Enzyme activity pIC50 [1]: 7.3
- IC50 [2]: 0.501 µM

Structure (SMILES): O=C(NO)c1cnc(N2CCOC(Cn3ccn(-c4cccc(F)c4)c3=O)C2)nc1 (centres unmarked) [Compound 21]
- Enzyme activity pIC50 [1]: 7.4
- IC50 [2]: 0.501 µM

Structure (SMILES): Cc1ccc(-n2ccn(CC3CN(c4ncc(C(=O)NO)cn4)CCO3)c2=O)cc1 (centres unmarked) [Compound 22]
- Enzyme activity pIC50 [1]: 7.2
- IC50 [2]: 5.01 µM

Structure (SMILES): O=C(NO)c1cnc(N2CCC(Cn3ccn(-c4cccc(C(F)(F)F)c4)c3=O)CC2)nc1 [Compound 23]
- Enzyme activity pIC50 [1]: 7.2
- IC50 [2]: 1.26 µM

Structure (SMILES): O=C(NO)c1cnc(N2CCC(Cn3ccn(-c4ccc5c(c4)OCCOCCOCCOCCO5)c3=O)CC2)nc1 [Compound 24]
- Enzyme activity pIC50 [1]: 7.4
- IC50 [2]: 0.631 µM

Structure (SMILES): COc1cc(-n2ccn(CC3CCN(c4ncc(C(=O)NO)cn4)CC3)c2=O)cc(OC)c1OC [Compound 25]
- Enzyme activity pIC50 [1]: 7.4
- IC50 [2]: 0.631 µM

Structure (SMILES): COc1cc(OC)cc(-n2ccn(CC3CCN(c4ncc(C(=O)NO)cn4)CC3)c2=O)c1 [Compound 26]
- Enzyme activity pIC50 [1]: 7.4
- IC50 [2]: 0.501 µM

Structure (SMILES): COc1ccc(-n2ccn(CC3CCN(c4ncc(C(=O)NO)cn4)CC3)c2=O)cc1OC [Compound 27]
- Enzyme activity pIC50 [1]: 7.5
- IC50 [2]: 0.631 µM

Structure (SMILES): COc1ccc(-n2ccn(CC3CCN(c4ncc(C(=O)NO)cn4)CC3)c2=O)cc1 [Compound 28]
- Enzyme activity pIC50 [1]: 7.6
- IC50 [2]: 0.631 µM

Structure (SMILES): COc1cccc(-n2ccn(CC3CCN(c4ncc(C(=O)NO)cn4)CC3)c2=O)c1 [Compound 29]
- Enzyme activity pIC50 [1]: 7.7
- IC50 [2]: 0.631 µM

Structure (SMILES): O=C(NO)c1cnc(N2CCC(Cn3ccn(-c4cccc(F)c4)c3=O)CC2)nc1 [Compound 30]
- Enzyme activity pIC50 [1]: 7.5
- IC50 [2]: 0.631 µM

Structure (SMILES): Cc1ccc(-n2ccn(CC3CCN(c4ncc(C(=O)NO)cn4)CC3)c2=O)cc1 [Compound 31]
- Enzyme activity pIC50 [1]: 7.7
- IC50 [2]: 0.631 µM

Structure (SMILES): O=C(NO)c1cnc(N2CCC(Cn3ccn(-c4ccccc4)c3=O)CC2)nc1 [Compound 32]
- Enzyme activity pIC50 [1]: 6.6
- IC50 [2]: 1 µM

Structure (SMILES): Cc1[nH]c2ccccc2c1CCn1ccn(CC2CCN(c3ncc(C(=O)NO)cn3)CC2)c1=O [Compound 35]
- Enzyme activity pIC50 [1]: 7.9
- IC50 [2]: 0.501 µM
- melting point: 246 °C

Structure (SMILES): CC1C(=O)N(c2ccc(C#N)cc2)C(=O)N1CC1CCN(c2ncc(C(=O)NO)cn2)CC1 (centres unmarked) [Compound 36]
- Enzyme activity pIC50 [1]: 7.0
- IC50 [2]: 1.58 µM
- melting point: 135 °C
